The experiment deals with Human Umbilical Vein Endothelial cells. The experiment in a line: HUVEC proliferation assay (VEGF-stimulated). The format is cell-based. Particulars: VEGF 50 ng/mL final, 72 h incubation, CyQuant dye, read-out: inhibited VEGF-stimulated HUVEC proliferation at a level (IC50). The method, then:
Human Umbilical Vein Endothelial cells are purchased from Clonetics, Inc., as cryopreserved cells harvested from a pool of donors. These cells, at passage 1, are thawed and expanded in EBM-2 complete medium, until passage 2 or 3. The cells are trypsinized, washed in DMEM+10% FBS+antibiotics, and spun at 1000 rpm for 10 min. Prior to centrifugation of the cells, a small amount is collected for a cell count. After centrifugation, the medium is discarded, and the cells are resuspended in the appropriate volume of DMEM+10% FBS+antibiotics to achieve a concentration of 3×10^5 cells/mL. Another cell count is performed to confirm the cell concentration. The cells are diluted to 3×10^4 cells/mL in DMEM+10% FBS+antibiotics, and 100 μL of cells are added to a 96-well plate. The cells are incubated at 37° C. for 22 h.
Prior to the completion of the incubation period, compound dilutions are prepared. Five-point, five-fold serial dilutions are prepared in DMSO, at concentrations 400-fold greater than the final concentrations desired. 2.5 μL of each compound dilution are diluted further in a total of 1 mL DMEM+10% FBS+antibiotics (400× dilution). Medium containing 0.25% DMSO is also prepared for the 0 μM compound sample. After 22-h, the medium is removed from the cells, and 100 μL of each compound dilution is added. The cells are incubated at 37° C. for 2-3 h.
During the compound pre-incubation period, the growth factors are diluted to the appropriate concentrations. Solutions of DMEM+10% FBS+antibiotics, containing either VEGF or bFGF at the following concentrations: 50, 10, 2, 0.4, 0.08, and 0 ng/mL are prepared. For the compound-treated cells, solutions of VEGF at 550 ng/mL or bFGF at 220 ng/mL for 50 ng/mL or 20 ng/mL final concentrations, respectively, are prepared since 10 μL of each will be added to the cells (110 μL final volume). At the appropriate time after adding the compounds, the growth factors are added. VEGF is added to one set of plates, while bFGF is added to another set of plates. For the growth factor control curves, the media on wells B4-G6 of plates 1 and 2 are replaced with media containing VEGF or bFGF at the varying concentrations (50-0 ng/mL). The cells are incubated at 37° C. for an additional 72 h.
At the completion of the 72 h incubation period, the medium is removed, and the cells are washed twice with PBS. After the second wash with PBS, the plates are tapped gently to remove excess PBS, and the cells are placed at −70° C. for at least 30 min. […] Raw data are collected and analyzed using a 4-parameter fit equation in XLFit. IC50 values are then determined.
As for `CNC(=O)c1cc(Oc2ccc3[nH]c(Nc4ccc(C(F)(F)C(F)(F)F)c(OC[C@H]5CCCN5C)c4)nc3c2)ccn1` [Example 6, R-4-{2-[3-(1-Methyl-pyrrolidin-2-ylmethoxy)-4-pentafluoroethyl-phenylamino]-1H-benzimidazol-5-yloxy}-pyridine-2-carboxylic acid methylamide], the IC50 is less than 100 nM.

Regarding `CNC(=O)c1cc(Oc2ccc3[nH]c(Nc4ccc(C(F)(F)F)c(OCCN(C)C)c4)nc3c2)ccn1` [Example 13a], the IC50 was less than 100 nM.

In the case of `CNC(=O)c1cc(Oc2ccc3[nH]c(Nc4ccc(C(F)(F)F)c(OCC5CCCN5C)c4)nc3c2)ccn1` (stereo not drawn) [Example 13c], the IC50 was less than 100 nM.

Take `CNC(=O)c1cc(Oc2ccc3c(c2)nc(Nc2ccc(Cl)c(CN4CCN(C)CC4)c2)n3C)ccn1` [Example 17, 4-{2-[4-Chloro-3-(4-methyl-piperazin-1-ylmethyl)-phenylamino]-1-methyl-1H-benzimidazol-5-yloxy}-pyridine-2-carboxylic acid methylamide]: the IC50 is less than 100 nM.

Turning to `CN1CCN(Cc2cc(Nc3nc4cc(Oc5ccnc6ccccc56)ccc4[nH]3)ccc2Cl)CC1` [Example 28, [4-Chloro-3-(4-methyl-piperazin-1-ylmethyl)-phenyl]-[5-(quinolin-4-yloxy)-1H-benzimidazol-2-yl]-amine], the IC50 was less than 100 nM.

`CN1CCC[C@@H]1COc1cc(Nc2nc3cc(Oc4ccnc5ccccc45)ccc3[nH]2)ccc1C(F)(F)F` [Example 29, [3-(1-Methyl-pyrrolidin-2-ylmethoxy)-4-trifluoromethyl-phenyl]-[5-(quinolin-4-yloxy)-1H-benzimidazol-2-yl]-amine]: the IC50 was less than 100 nM.

With `CNC(=O)c1cc(Oc2ccc3oc(Nc4ccc(Cl)c(CN5CCN(C)CC5)c4)nc3c2)ccn1` [Example 32, 4-{2-[4-Chloro-3-(4-methyl-piperazin-1-ylmethyl)-phenylamino]-benzoxazol-5-yloxy}-pyridine-2-carboxylic acid methylamide], the IC50 was less than 100 nM.

Take `CNC(=O)c1cc(Oc2ccc3oc(Nc4ccc(Br)cc4)nc3c2)ccn1` [Example 38]: the IC50 is less than 100 nM.

Turning to `CNC(=O)c1cc(Oc2ccc3oc(Nc4ccc(C(C)C)cc4)nc3c2)ccn1` [Example 39], the IC50 was less than 100 nM.

Take `COc1cc2nccc(Oc3ccc4oc(Nc5ccc(Cl)c(CN6CCN(C)CC6)c5)nc4c3)c2cc1OC` [Example 45, 5-((6,7-bis(Methoxy)-4-quinolinyl)oxy)-N-(4-chloro-3-((4-methyl-1-piperazinyl)methyl)phenyl)-1,3-benzoxazol-2-amine]: the IC50 was less than 100 nM.

In the case of `CN1CCN(Cc2cc(Nc3nc4cc(Oc5ccnc6[nH]ccc56)ccc4o3)ccc2Cl)CC1` [Example 46, N-(4-Chloro-3-((4-methyl-1-piperazinyl)methyl)phenyl)-5-(1H-pyrrolo[2,3-b]pyridin-4-yloxy)-1,3-benzoxazol-2-amine], the IC50 was less than 100 nM.

In the case of `CN1CCC[C@H]1COc1cc(Nc2nc3cc(Oc4ccnc5[nH]ccc45)ccc3o2)ccc1Cl` [Example 47, N-(4-Chloro-3-(((2S)-1-methyl-2-pyrrolidinyl)methoxy)phenyl)-5-(1H-pyrrolo[2,3-b]pyridin-4-yloxy)-1,3-benzoxazol-2-amine], the IC50 is less than 100 nM.

Turning to `CNC(=O)c1cc(Oc2cc(F)c3oc(Nc4ccc(Cl)c(OC[C@@H]5CCCN5C)c4)nc3c2)ccn1` [Example 49, 4-((2-((4-Chloro-3-(((2S)-1-methyl-2-pyrrolidinyl)methoxy)phenyl)amino)-7-fluoro-1,3-benzoxazol-5-yl)oxy)-N-methyl-2-pyridinecarboxamide], the IC50 is less than 100 nM.

As for `COc1cc2nccc(Oc3ccc4[nH]c(Nc5ccc(Cl)c(CN6CCN(C)CC6)c5)nc4c3)c2cc1OC` [Example 236, [4-Chloro-3-(4-methylpiperazin-1-ylmethyl)-phenyl]-[5-(6,7-dimethoxyquinolin-4-yloxy)-1H-benzimidazol-2-yl]-amine], the IC50 was less than 100 nM.

As to `COc1cc2ncnc(Oc3ccc4[nH]c(Nc5ccc(Cl)cc5)nc4c3)c2cc1OC` [Example 237, (4-Chlorophenyl)-[5-(6,7-dimethoxyquinazolin-4-yloxy)-1H-benzimidazol-2-yl]-amine], the IC50 is less than 100 nM.

For the compound `COc1cc2ncnc(Oc3ccc4[nH]c(Nc5ccc(Cl)c(OCC6CCN(C)CC6)c5)nc4c3)c2cc1OC` [Example 238, [4-Chloro-3-(1-methylpiperidin-4-ylmethoxy)-phenyl]-[5-(6,7-dimethoxyquinazolin-4-yloxy)-1H-benzimidazol-2-yl]-amine], the IC50 was less than 100 nM.

Take `CNc1cc(Oc2ccc3oc(Nc4ccc(Cl)c(OC[C@@H]5CCCN5C)c4)nc3c2)ccn1` [Example 239, [4-Chloro-3-((2S)-1-methylpyrrolidin-2-ylmethoxy)-phenyl]-[5-(2-methylamino-pyridin-4-yloxy)-benzoxazol-2-yl]-amine]: the IC50 was less than 100 nM.

Regarding `CN1CCC[C@H]1COc1cc(Nc2nc3cc(Oc4ccnc(C(N)=O)c4)ccc3o2)ccc1Cl` [Example 240, 4-{2-[4-Chloro-3-((2S)-1-methylpyrrolidin-2-ylmethoxy)-phenylamino]-benzoxazol-5-yloxy}-pyridine-2-carboxylic acid amide], the IC50 was less than 100 nM.

`CNC(=O)c1cc(Oc2ccc3oc(Nc4ccc(Cl)c(OCC5CCN(C)CC5)c4)nc3c2)ccn1` [Example 242, 4-{2-[4-Chloro-3-(1-methylpiperidin-4-ylmethoxy)-phenylamino]-benzoxazol-5-yloxy}-pyridine-2-carboxylic acid methylamide]: the IC50 is less than 100 nM.

For `CNC(=O)c1cc(Oc2ccc3oc(Nc4ccc(Cl)c(OCC5CCNCC5)c4)nc3c2)ccn1` [Example 243, 4-{2-[4-Chloro-3-(piperidin-4-ylmethoxy)-phenylamino]-benzoxazol-5-yloxy}-pyridine-2-carboxylic acid methylamide], the IC50 is less than 100 nM.

Regarding `CNC(=O)c1cc(Oc2ccc3oc(Nc4ccc(Cl)c(OCC5CCN(C(C)C)CC5)c4)nc3c2)ccn1` [Example 244, 4-{2-[4-Chloro-3-(1-isopropylpiperidin-4-ylmethoxy)-phenylamino]-benzoxazol-5-yloxy}-pyridine-2-carboxylic acid methyl amide], the IC50 was less than 100 nM.

Take `CNC(=O)c1cc(Oc2cc(Cl)c3oc(Nc4ccc(Cl)c(CN5CCN(C)CC5)c4)nc3c2)ccn1` [Example 245, 4-{7-Chloro-2-[4-chloro-3-(4-methyl-piperazin-1-ylmethyl)-phenylamino]-benzoxazol-5-yloxy}-pyridine-2-carboxylic acid methyl amide]: the IC50 is less than 100 nM.

With `CNC(=O)c1cc(Oc2ccc3oc(Nc4ccc(Cl)c(CN5CCN(CCN(C)C)CC5)c4)nc3c2)ccn1` [Example 246, 4-[2-{4-Chloro-3-[4-(2-dimethylamino-ethyl)-piperazin-1-ylmethyl]-phenylamino}-benzoxazol-5-yloxy)-pyridine-2-carboxylic acid methylamide], the IC50 is less than 100 nM.

Take `CC(C)N1CCC[C@H]1COc1cc(Nc2nc3cc(Oc4ccnc5[nH]ccc45)ccc3o2)ccc1Cl` [Example 247, S-[4-Chloro-3-(1-isopropylpyrrolidin-2-ylmethoxy)-phenyl]-[5-(1H-pyrrolo[2,3-b]pyridin-4-yloxy)-benzoxazol-2-yl]-amine]: the IC50 is less than 100 nM.

On to `CCN(CC)CCOc1cc(Nc2nc3cc(Oc4ccnc(C(=O)NC)c4)ccc3o2)ccc1Cl` [Example 248, 4-{2-[4-Chloro-3-(2-diethylamino-ethoxy)-phenylamino]-benzoxazol-5-yloxy}-pyridine-2-carboxylic acid methylamine], for which the IC50 is less than 100 nM.

As for `CNC(=O)c1cc(Oc2ccc3oc(Nc4ccc(Cl)c(OCCN(C)C)c4)nc3c2)ccn1` [Example 249, 4-{2-[4-Chloro-3-(2-dimethylamino-ethoxy)-phenylamino]-benzoxazol-5-yloxy}-pyridine-2-carboxylic acid methylamide], the IC50 was less than 100 nM.

In the case of `CNC(=O)c1cc(Oc2ccc3oc(Nc4ccc(Cl)c(OC[C@@H]5CCCN5C(C)C)c4)nc3c2)ccn1` [Example 252, 4-{2-[4-Chloro-3-((2S)-1-isopropyl-pyrrolidin-2-ylmethoxy)-phenylamino]-benzooxazol-5-yloxy}-pyridine-2-carboxilic acid methylamide], the IC50 is less than 100 nM.

These data come from US7531553B2, “Heterocyclic compounds and methods of use” (Amgen Inc., priority 2003, dated 2009).
